{
  "source": "the supplement of paper PMC11208160",
  "data": [
    {"test": "recombinant UMI read abundance after kanamycin selection (control-corrected) (log10(CPM+1)); higher = more efficient recombination; extreme values may be limits of the assay; sequences stand for … in AGTGCAGAGAAAATCGGCCAGTTTTCTCTGCCTGCAGTCCGCATGCCGTGGGACCCCTTGGGTTCTAACCTGTTGCCTAGATTTATGCAGCGGACTGCCTTTCTCCCAAAGTGATAAACCGG…AGGTTGGTTTCACT; site = the 11-nt donor", "outline": "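Values are reported as log10(CPM+1), obtained by converting sequencing counts to CPM, averaging replicates and scaling by control-derived factors. The counts came from recombinant UMIs amplified by PCR across the donor–target junction. These UMIs came from a pooled Escherichia coli screen of donor and donor-binding-loop pairs for the IS621 bridge recombinase, plated with IPTG (0.07 mM) plus kanamycin or left unselected, in two replicates each.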", "values": [
      {"sequence": "TAGACTACATGGACCGGTTTTCCCGGTAATCCGTATTTGCA (site TAGAGTACTTG)", "recombinant UMI read abundance (log10)": 0.0124},
      {"sequence": "TAGACTACATGGACCGGTTTTCCCGGTAATCCGTATTTGCA (site TAGATTACTTG)", "recombinant UMI read abundance (log10)": 0.502},
      {"sequence": "TAGATTACATGGACCGGTTTTCCCGGTAATCCGTATTTGTA (site TAGATTACTTA)", "recombinant UMI read abundance (log10)": 0.528},
      {"sequence": "TAGCAAGCATGGACCGGTTTTCCCGGTAATCCGTATTTGAA (site TAGCAAGCTTT)", "recombinant UMI read abundance (log10)": 1.45},
      {"sequence": "TAGCAAGCATGGACCGGTTTTCCCGGTAATCCGTATTTGAA (site TAGCCAGCTTT)", "recombinant UMI read abundance (log10)": 0.0116},
      {"sequence": "TAGCAAGCATGGACCGGTTTTCCCGGTAATCCGTATTTGAA (site TAGCGAGCTTT)", "recombinant UMI read abundance (log10)": 0.00665},
      {"sequence": "TAGCAAGCATGGACCGGTTTTCCCGGTAATCCGTATTTGAA (site TAGCTAGCTTT)", "recombinant UMI read abundance (log10)": 0.00716},
      {"sequence": "TAGCATACATGGACCGGTTTTCCCGGTAATCCGTATTTGCA (site TAGAATACTTG)", "recombinant UMI read abundance (log10)": 0},
      {"sequence": "TAGCATACATGGACCGGTTTTCCCGGTAATCCGTATTTGCA (site TAGCATACTTG)", "recombinant UMI read abundance (log10)": 1.62},
      {"sequence": "TAGCATACATGGACCGGTTTTCCCGGTAATCCGTATTTGCA (site TAGGATACTTG)", "recombinant UMI read abundance (log10)": 0},
      {"sequence": "TAGCATACATGGACCGGTTTTCCCGGTAATCCGTATTTGCA (site TAGTATACTTG)", "recombinant UMI read abundance (log10)": 0.507},
      {"sequence": "TAGCATTCATGGACCGGTTTTCCCGGTAATCCGTATTTGGT (site TAGCATTCTAC)", "recombinant UMI read abundance (log10)": 1.23},
      {"sequence": "TAGCATTCATGGACCGGTTTTCCCGGTAATCCGTATTTGGT (site TAGCCTTCTAC)", "recombinant UMI read abundance (log10)": 0.00694},
      {"sequence": "TAGCATTCATGGACCGGTTTTCCCGGTAATCCGTATTTGGT (site TAGCGTTCTAC)", "recombinant UMI read abundance (log10)": 0.0097},
      {"sequence": "TAGCATTCATGGACCGGTTTTCCCGGTAATCCGTATTTGGT (site TAGCTTTCTAC)", "recombinant UMI read abundance (log10)": 0},
      {"sequence": "TAGCCATCATGGACCGGTTTTCCCGGTAATCCGTATTTGGT (site TAGCCATCTAC)", "recombinant UMI read abundance (log10)": 0.74},
      {"sequence": "TAGCCATCATGGACCGGTTTTCCCGGTAATCCGTATTTGGT (site TAGCCCTCTAC)", "recombinant UMI read abundance (log10)": 0.0197},
      {"sequence": "TAGCCATCATGGACCGGTTTTCCCGGTAATCCGTATTTGGT (site TAGCCGTCTAC)", "recombinant UMI read abundance (log10)": 0.0186},
      {"sequence": "TAGCCATCATGGACCGGTTTTCCCGGTAATCCGTATTTGGT (site TAGCCTTCTAC)", "recombinant UMI read abundance (log10)": 0.0124},
      {"sequence": "TAGCCCTCATGGACCGGTTTTCCCGGTAATCCGTATTTGGT (site TAGCCATCTAC)", "recombinant UMI read abundance (log10)": 0.00538},
      {"sequence": "TAGCCCTCATGGACCGGTTTTCCCGGTAATCCGTATTTGGT (site TAGCCCTCTAC)", "recombinant UMI read abundance (log10)": 1.12},
      {"sequence": "TAGCCCTCATGGACCGGTTTTCCCGGTAATCCGTATTTGGT (site TAGCCGTCTAC)", "recombinant UMI read abundance (log10)": 0.0119},
      {"sequence": "TAGCCCTCATGGACCGGTTTTCCCGGTAATCCGTATTTGGT (site TAGCCTTCTAC)", "recombinant UMI read abundance (log10)": 0},
      {"sequence": "TAGCCGACATGGACCGGTTTTCCCGGTAATCCGTATTTGAC (site TAGCCGACTGT)", "recombinant UMI read abundance (log10)": 2.63},
      {"sequence": "TAGCCGGCATGGACCGGTTTTCCCGGTAATCCGTATTTGGC (site TAGCCGGCTGC)", "recombinant UMI read abundance (log10)": 1.62},
      {"sequence": "TAGCCGGCATGGACCGGTTTTCCCGGTAATCCGTATTTGGC (site TCGCCGGCTGC)", "recombinant UMI read abundance (log10)": 0},
      {"sequence": "TAGCCGGCATGGACCGGTTTTCCCGGTAATCCGTATTTGGC (site TGGCCGGCTGC)", "recombinant UMI read abundance (log10)": 0},
      {"sequence": "TAGCCGGCATGGACCGGTTTTCCCGGTAATCCGTATTTGGC (site TTGCCGGCTGC)", "recombinant UMI read abundance (log10)": 0},
      {"sequence": "TAGCCTCCATGGACCGGTTTTCCCGGTAATCCGTATTTGTT (site TAGCCTCCTAA)", "recombinant UMI read abundance (log10)": 0.0845},
      {"sequence": "TAGCCTGCATGGACCGGTTTTCCCGGTAATCCGTATTTGAT (site TAGCCTGCTAT)", "recombinant UMI read abundance (log10)": 0.0647},
      {"sequence": "TAGCGCGCATGGACCGGTTTTCCCGGTAATCCGTATTTGTC (site TAGCGCGCTGA)", "recombinant UMI read abundance (log10)": 2.77},
      {"sequence": "TAGCTAGCATGGACCGGTTTTCCCGGTAATCCGTATTTGAC (site TAGCTAGCTAT)", "recombinant UMI read abundance (log10)": 0.556},
      {"sequence": "TAGCTAGCATGGACCGGTTTTCCCGGTAATCCGTATTTGAC (site TAGCTAGCTCT)", "recombinant UMI read abundance (log10)": 0},
      {"sequence": "TAGCTAGCATGGACCGGTTTTCCCGGTAATCCGTATTTGAC (site TAGCTAGCTGT)", "recombinant UMI read abundance (log10)": 2.34}
    ]}
  ]
}
